From patent US8545841B2, “Methods and compositions for the treatment of cancers and pathogenic infections” (University of Florida Research Foundation, Inc., priority 2008, dated 2013)

Experiments:
P. gingivalis = test: Trafficking of P. gingivalis to lysosomes in human coronary arterial endothelial cells (HCAEC); assay type: cell-based, Porphyromonas gingivalis; settings: HCAEC exposed to P. gingivalis; replicative vacuole in untreated cells
Text: FIGS. 7A-7D. The inhibition of autophagy by AI-1 and AI-2 results in the trafficking of P. gingivalis to lysosomes. Human coronary arterial endothelial cells (HCAEC) were exposed to P. gingivalis (Pg) in the absence (FIG. 7A) and presence of 3-methyladenine (3MA) (FIG. 7B) and compounds AI-1 (FIG. 7C) and AI-2 (FIG. 7D).
We have previously shown that autophagy is required for P. gingivalis to thrive within host endothelial cells (Dorn, B. R., Dunn, W. A., Jr., and Progulske-Fox, A. “Porphyromonas gingivalis traffics to autophagosomes in human coronary artery endothelial cells” Infect Immun, 2001, Vol. 69, pp. 5698-5708). In fact, in the absence of autophagy, this bacterium fails to form a “replicative vacuole” and is instead transported to lysosomes where the bacterium is destroyed by digestive enzymes. We then tested the efficacy of AI-1 and AI-2 to promote the intracellular movements of this intracellular pathogen to the destructive lysosomes.

[1] = system: Saos-2 osteosarcoma and MDA-MB468 breast carcinoma cell lines; test: GFP-Atg8 labeled autophagic vacuoles in nutrient-starved cells stably expressing GFP-Atg8; assay type: cell-based; settings: starved Saos-2 cells, FIG. 2
Protocol: FIGS. 2A-2D. Atg-4-targeted drugs decreased the number of Atg8 (LC3)-labeled autophagic vacuoles. Saos-2 osteosarcoma and MDA-MB468 breast carcinoma cells stably expressing GFP-Atg8 were incubated under nutrient fed and starved (St) conditions in the presence and absence of AI-1 and AI-2. The presence GFP-Atg8 labeled autophagic vacuoles appear as dots (arrows) in starved Saos-2 cells (FIG. 2B). Atg8-labeled vacuoles are not observed in fed Saos-2 cells or starved cell treated with AI-1. Almost 70% of the starved cells contained autophagic vacuoles. However, the number of starved cells containing autophagic vacuoles was dramatically reduce upon treatment with AI-1 and AI-2 (FIG. 2D; n=number of cells counted). The Atg4 compounds were obtained from the National Cancer Institute (NCI) and then tested for their ability to suppress autophagy by observing the presence of autophagosomes in Saos-2 osteosarcoma and MDA-MB468 breast carcinoma cell lines stabling expressing Atg8 tagged with a green fluorescent protein (GFP-Atg8). Upon the onset of autophagy, Atg8 becomes lipidated being anchored to the autophagosome membrane whereby this protein then recruits additional membranes for expanding the size of the vacuoles and thus, regulating the degradative amplitude of autophagy. […]

Atg8 (LC3) = test: Lipidation of Atg8 (Atg8-PE) by Western blotting in starved Saos-2 cells; assay type: cell-based; settings: Saos-2 cells expressing GFP-Atg8 starved for amino acids for 2-6 h
Text: (§1) FIG. 3. Atg-4-targeted compounds suppress the lipidation of Atg8 (LC3) in Saos-2 osteosarcoma cells. The lipidation of Atg8 (Atg8-PE) was examined by Western blotting in fed and starved (medium lacking amino acids and serum) cells and in starved cells treated with 3-methyladenine (3MA), AI-1 and AI-2. The Atg4 compounds were obtained from the National Cancer Institute (NCI) and then tested for their ability to suppress autophagy by observing the presence of autophagosomes in Saos-2 osteosarcoma and MDA-MB468 breast carcinoma cell lines stabling expressing Atg8 tagged with a green fluorescent protein (GFP-Atg8). Upon the onset of autophagy, Atg8 becomes lipidated being anchored to the autophagosome membrane whereby this protein then recruits additional membranes for expanding the size of the vacuoles and thus, regulating the degradative amplitude of autophagy. […] Compared to 70% of the starved cells containing autophagic vacuoles, less than 20% of those starved cells treated with AI-1 or AI-2 contained these vacuoles. These observations were consistent with the negative effects of these compounds on the lipidation of Atg8 (FIG. 3). Saos-2 cells expressing GFP-Atg8 were starved for amino acids for 2-6 h in the absence and presence of 3-methyladenine and the Atg4 compounds. […]

[2] = system: Saos-2 and MDA-MB468 cells; test: Starvation induced (autophagy-mediated) protein degradation, pulse-chase with 14C-leucine; assay type: cell-based; settings: starved cells, FIG. 4
Protocol: FIG. 4. Atg-4-targeted drugs suppress starvation induced (autophagy-mediated) protein degradation. Saos-2 and MDA-MB468 cells were incubated under nutrient fed and starved conditions in the presence and absence of 3-methyladenine (3MA), AI-1 and AI-2 and the rates of protein degradation measure by pulse-chase methodology with 14C-leucine. Bars=mean±SEM. n=4-6 trials. The Atg4 compounds were obtained from the National Cancer Institute (NCI) and then tested for their ability to suppress autophagy by observing the presence of autophagosomes in Saos-2 osteosarcoma and MDA-MB468 breast carcinoma cell lines stabling expressing Atg8 tagged with a green fluorescent protein (GFP-Atg8). Upon the onset of autophagy, Atg8 becomes lipidated being anchored to the autophagosome membrane whereby this protein then recruits additional membranes for expanding the size of the vacuoles and thus, regulating the degradative amplitude of autophagy. […] Compared to 70% of the starved cells containing autophagic vacuoles, less than 20% of those starved cells treated with AI-1 or AI-2 contained these vacuoles. These observations were consistent with the negative effects of these compounds on the lipidation of Atg8 (FIG. 3). Saos-2 cells expressing GFP-Atg8 were starved for amino acids for 2-6 h in the absence and presence of 3-methyladenine and the Atg4 compounds. […]

HuH7 hepatoma cells = test: Survival of nutrient-starved cells, crystal violet staining; assay type: cell-based; settings: HuH7, nutrient-deprived serum-free medium, 24 hours
Protocol: (§2) FIGS. 6A-B. Atg-4-targeted drugs decrease cell survival of nutrient deprived cancer cells. Control breast epithelial MCF10A, MDA-MB 468 breast carcinoma, Saos2 osteosarcoma, and HuH7 hepatoma were incubated under nutrient fed and starved conditions in the presence and absence of AI-1 and AI-2. The number of viable cells on the plate relative to fed after 24 hrs was quantified by crystal violet staining. Bars=mean±SEM, n=4-6 trials.
(§3) During the early stages of tumor growth prior to vascularization, cancer cells are exposed to conditions lacking nutrients and growth factors. These cells are able to survive these conditions by activating autophagy, thereby degrading endogenous macromolecules and recycling the nutrients. In order to simulate these conditions in vitro, we have incubated cells in the absence of amino acids and serum. Approximately 65-75% of the normal and cancer cell lines tested survived when exposed to nutrient-deprived serum-free medium for 24 hours.

[3] = system: Saos-2 osteosarcoma cells; test: as above; assay type: cell-based; settings: Saos-2, nutrient-deprived serum-free medium, 24 hours
Protocol: as §2, §3

[4] = system: breast carcinoma MDA-MB468 cells; test: as above; assay type: cell-based; settings: MDA-MB468, nutrient-deprived serum-free medium, 24 hours
Protocol: as §2, §3

[5] = system: normal breast epithelial cells (MCF10A); test: as above; assay type: cell-based; settings: nutrient-deprived serum-free medium, 24 hours
Protocol: as §2, §3

MDA-MB468 cells = test: Size and distribution of autophagic vacuoles by electron microscopy; assay type: cell-based; settings: starved MDA-MB468 cells
Protocol: FIGS. 5A-5D. Atg-4-targeted drugs reduce the size of autophagic vacuoles. MDA-MB468 cells were incubated under nutrient fed (FIG. 5A) and starved (medium lacking amino acids and serum; FIG. 5B) conditions in the presence and absence of AI-1 (FIG. 5C) and AI-2 (FIG. 5D), Autophagic vacuoles (arrows) were visualized by electron microscopy. The “black” reaction product of CMPase, a lysosomal enzyme, can be seen within small lysosomes, many larger autophagic vacuoles (arrows) as well as the Golgi apparatus (Go).
as §1, with “The” for “FIG. 3. Atg-4-targeted compounds suppress the lipidation of Atg8 (LC3) in Saos-2 osteosarcoma cells. The lipidation of Atg8 (Atg8-PE) was examined by Western blotting in fed and starved (medium lacking amino acids and serum) cells and in starved cells treated with 3-methyladenine (3MA), AI-1 and AI-2. The”, “3).” for “3). Saos-2 cells expressing GFP-Atg8 were starved for amino acids for 2-6 h in the absence and presence of 3-methyladenine and the Atg4 compounds.”

Cn1cnc(N)c2ncnc1-2 [3-methyladenine, reference compound]
location and state of intracellular P. gingivalis (P. gingivalis): partially degraded bacteria were found in CMPase-positive lysosomes

S=C(Nc1ccccn1)c1ccccn1 [AI-1, N-2-pyridinyl-2-pyridinecarbothioamide]
Atg8-labeled vacuoles observed [1]: not observed
lipidation of Atg8 (Atg8-PE) (Atg8 (LC3)): inhibiting the lipidation of Atg8 (LC3)
degradation of endogenous proteins [2]: reduction in the degradation of endogenous proteins
survival of nutrient-starved cells (HuH7 hepatoma cells): moderate activity
survival of nutrient-starved cells [3]: moderate activity
survival of nutrient-starved cells [4]: less than 40%
survival of nutrient-starved cells [5]: only moderately affected
location and state of intracellular P. gingivalis (P. gingivalis): bacteria in various degraded states were observed in CMPase-positive lysosomes

CC(C)OC(=O)Nc1ccc2nc(-c3cscn3)[nH]c2c1 [AI-2, cambendazole]
lipidation of Atg8 (Atg8-PE) (Atg8 (LC3)): inhibiting the lipidation of Atg8 (LC3)
degradation of endogenous proteins [2]: reduction in the degradation of endogenous proteins
distribution of autophagic vacuoles (MDA-MB468 cells): dramatic redistribution of the autophagic vacuoles to a centralized region of the cell
survival of nutrient-starved cells (HuH7 hepatoma cells): 30 % of controls
survival of nutrient-starved cells [5]: only moderately affected
location and state of intracellular P. gingivalis (P. gingivalis): bacteria in various degraded states were observed in CMPase-positive lysosomes
